# Where a name gives a salt, the structure may show the parent alone.
# What was measured:
# [1] = tested on: women; conditions: normal estradiol and testosterone levels not established before the drug was used; cited from earlier work
# [2] = tested on: women; experiment: administration of vardenafil hydrochloride or tadalafil to women prior to sexual activity; assay type: in vivo, human
# Description: More particularly, the initial step in the process comprising the first embodiment of the invention comprises identifying a woman desiring sexual enhancement. […] Thereafter, the woman's blood is tested to determine the levels of estradiol and testosterone. If the woman's blood contains an estradiol level within a first predetermined range and a testosterone level within a second predetermined range, the process of the present invention continues. If not, the woman is treated utilizing conventional techniques to bring the level of estradiol in her blood to within the first predetermined range and/or to bring the level of testosterone in her blood to within the second predetermined range. […]
# After the required levels of estradiol and testosterone in the woman's blood have either been confirmed or established, a drug selected from the group consisting of vardenafil hydrochloride and tadalafil is administered to the woman prior to sexual activity. […] It has been determined that the selected drug should be administered at least 15-20 minutes prior to the beginning of sexual activity. The optimum time interval between administration of the selected drug and the beginning of sexual activity may vary depending on the particular circumstances and is best determined by the woman through experimentation. […]
# [3] = tested on: women; conditions: widely used for years; cited from earlier work
# [4] = tested on: women; conditions: headaches, facial flushing, nasal congestion, indigestion, bluish tinge to vision, blindness; cited from earlier work
# [5] = tested on: women; experiment: unpublished clinical study of DHEA cream (transdermal) or pellets (subcutaneous) in women; assay type: in vivo, human
# From the text: A third embodiment of the present invention comprises a new use of a well-established steroid hormone. The invention includes both the topical application of the hormone in cream form and the subcutaneous implantation of the hormone in pellet form for the purpose of female sexual enhancement.
# The hormone is dehydroepiandrosterone (DHEA) and the carrying agent for its topical use is a proprietary compound, Q-base cream. Q-base cream is available to compound pharmacies all over the United States and consists of the following formulation: • purified water, cyclomethicone, octyl stearate, arlacel 165 (PEG-100 stearate/glyceryl stearate), sorbitol, green tea extract (organic), stearyl alcohol, cyclopentasiloxane and PEG/PPG-18/18 dimethicone, gingko extract (organic), ginseng extract (organic), tocotrienols, vitamin E acetate, wheat germ oil, edetate disodium, xanthan gum, vitamin A palmitate, coenzyme Q10, methylchloroisothiazolinone/methylisothiazolin one.
# Alternatively, the carrying agent for the DHEA may comprise H-base cream. The formula for H-base cream is as follows: • water, glycerin, canola oil, stearic acid, cetyl alcohol, PEG-100 stearate, glyceryl stearate, dimethicone, magnesium aluminum silicate, propylene glycol, triethanolamine, polysorbate 60, xanthan gum, bitter almond kernel oil, aloe vera, grape seed extract, wheat germ oil, vitamin E acetate, vitamin A palmitate, Vitamin C palmitate, tetrasodium EDTA, potassium sorbate, diazolidinyl urea. H base cream is a proprietary product produced by Professional Compounds Centers of America and licensed by it.
# The method of application of either the Q-base cream/DHEA mixture or the H-base cream/DHEA mixture in females is local application to the erectile tissue of the nipples and glans clitoris. The ratio of ingredients comprising the Q-base cream/DHEA mixture is between about 25 mg and about 50 mg of DHEA to about 1 cc of Q-base cream. The ratio of ingredients comprising the H-base cream/DHEA mixture is substantially the same. The resulting mixture is applied one time per day but not related to intercourse. Implantation of subcutaneous DHEA pellets is at the strength of about 25 mg of DHEA per pellet at intervals of between about 2 months and about 3 months. […] Normal levels are considered to be 50-100 picograms per milliliter.
# In an unpublished clinical study of the third embodiment of the invention over the past three years patient acceptance and satisfaction has been clear-cut and in excess of 95%. The response is dependent on the patient having normal blood levels of estradiol and testosterone as well. A normal level of DHEA is about 50 to about 100 picograms per milliliter. A normal level of estradiol is about 50 to about 100 picograms per milliliter and a normal level of testosterone is about 200 to about 540 picograms per milliliter. Normal ranges for all these levels can vary from laboratory to laboratory.
smiles,measurement,setting,value
CCCc1nc(C)c2c(=O)[nH]c(-c3cc(S(=O)(=O)N4CCN(CC)CC4)ccc3OCC)nn12 [vardenafil hydrochloride],efficacy in women,[1],ineffective in women
same,enhancement of sexual arousal and sexual satisfaction in females,[2]; drug given prior to sexual activity,significant enhancement
same,efficacy in women compared with men,"[2]; experiences over the past 2 years, lower dosage, used correctly (normal estradiol and testosterone)",even more effective (lower dosage) in women than in men
same,safety profile,[3],remarkable safety profiles
"CCCc1nn(C)c2c(=O)[nH]c(-c3cc(S(=O)(=O)N4CCN(C)CC4)ccc3OCC)nc12 [VIAGRA, sildenafil citrate]",side effects observed in women using the drug for sexual enhancement,[4],unacceptable side effects
CN1CC(=O)N2[C@H](c3ccc4c(c3)OCO4)c3[nH]c4ccccc4c3C[C@@H]2C1=O [tadalafil],safety profile,[3],remarkable safety profiles
"C[C@]12CC[C@H](O)CC1=CC[C@@H]1[C@@H]2CC[C@]2(C)C(=O)CC[C@@H]12 [DHEA, dehydroepiandrosterone]","blood levels, cream versus subcutaneous pellets",[5]; cream once per day versus about 25 mg pellet every 2 to 3 months,Identical blood levels are achieved with both methods of application
same,patient acceptance and satisfaction,"[5]; third embodiment, over the past three years, normal blood levels of estradiol and testosterone",> 95%
same,female sexual pleasure and satisfaction including sexual arousal and achievement of orgasm,"[5]; transdermal or subcutaneous, women with normal estradiol and testosterone",enhanced
same,"blood level above which excess androgen complications occur (male pattern hair loss, excess facial hair growth, acne)",[5]; women,exceed 100 picograms per milliliter
same,safety profile of administration,[5]; women,extraordinary

# Source: patent US20080119445A1, “METHODS OF FEMALE SEXUAL ENHANCEMENT” (priority 2004, published 2008)
